Measured values as given in US20080096947A1, “Parenteral Forms Of Administration Of Imexon And Method For The Production Thereof” (Heidelberg Pharma AG, priority 2004, published 2008).
Entries after “also recorded” stand apart in the source; their conditions may differ.

How the values were obtained:
[1] = Solubility of imexon in water; assay type: physicochemical
[2] = Stability of imexon in aqueous solution; assay type: physicochemical; conditions: aziridine ring opens, isomerises to water-insoluble products
[3] = Stability of imexon in organic solvents; assay type: physicochemical
[4] = background statement; therapeutically effective dosages only intravenously; cited from earlier work

N=C1NC(=O)N2CC12 (centres unmarked) [Imexon, 4-imino-1,3-diazabicyclo-(3.1.0)-hexane-2-one]
solubility in water [1]: highly soluble in water
stability in water / aqueous solutions [2]: not stable; also recorded: decomposes in aqueous solutions after a short period
stability of solution in DMSO ([3]; DMSO): stable solution of imexon can be produced
stability in organic solvents ([3]; some organic solvents, in contrast to water): remains stable over a prolonged period
bioavailability [4]: low bioavailability
